Laboratory results: patent US10493077B2, “Fused imidazo-piperidine JAK inhibitor compound” (THERAVANCE BIOPHARMA R&D IP, LLC, priority 2017, dated 2019)
Read-outs that look alike come from different tables or passages of the source.

What was measured:
[1] = tested on: BEAS-2B human lung epithelial cells; assay: CellTiter-Glo cell viability/cytotoxicity assay; format: cell-based; conditions: BEAS-2B cells, 48 h, concentration at 15% inhibition threshold
Experimental: A CellTiter-Glo luminescent cell viability/cytotoxicity assay was carried out in BEAS-2B human lung epithelial cells (ATCC) under the normal growth condition.
Cells were grown at 37° C. in a 5% CO2 humidified incubator in 50% DMEM/50% F-12 medium (Life Technologies) supplemented with 10% FBS (Hyclone), 100 U/mL penicillin, 100 μg/mL streptomycin (Life Technologies), and 2 mM GlutaMAX (Life Technologies). On day 1 of the assay, cells were seeded at a 500 cells/well density in white 384-well tissue culture plates (Corning) with 25 μL medium, and were allowed to adhere overnight in the incubator. On day 2 of the assay, 5 μL of medium containing dose-responses of test compounds was added, and incubated at 37° C. for 48 h. 30 μL of CellTiter-Glo detection solution (Promega) was subsequently added, mixed on an orbital shaker for 5 min, and incubated for additional 10 min before being read on the EnVision reader. Luminescence signals were recorded and percent DMSO control values were calculated.
For dose-response analysis, percent DMSO control data were plotted vs. compound concentrations to derive dose-response curves by line connecting each data point. The concentration at which each curve crosses the 15% inhibition threshold is defined as CC15.

KIT = biological target: T1, KIT (Homo sapiens, UniProt P10721); assay: Kinome screen, KIT; format: binding; conditions: screened at 1 μM
T1 construct: made in house; host or cells: T7 phage in E. coli (BL21-derived) or HEK-293
Experimental: Kinase-tagged T7 phage strains were grown in parallel in 24-well blocks in an E. coli host derived from the BL21 strain. E. coli were grown to log-phase and infected with T7 phage from a frozen stock (multiplicity of infection=0.4) and incubated with shaking at 32° C. until lysis (90-150 minutes). The lysates were centrifuged (6,000×g) and filtered (0.2 μm) to remove cell debris. The remaining kinases were produced in HEK-293 cells and subsequently tagged with DNA for qPCR detection.
Streptavidin-coated magnetic beads were treated with biotinylated small molecule ligands for 30 minutes at room temperature to generate affinity resins for kinase assays. The liganded beads were blocked with excess biotin and washed with blocking buffer (SeaBlock (Pierce), 1% BSA, 0.05% Tween 20, 1 mM DTT) to remove unbound ligand and to reduce non-specific phage binding. […] Test compounds were prepared as 40× stocks in 100% DMSO and directly diluted into the assay. All reactions were performed in polypropylene 384-well plates in a final volume of 0.04 ml. […] The beads were then re-suspended in elution buffer (1×PBS, 0.05% Tween 20, 0.5 μM non-biotinylated affinity ligand) and incubated at room temperature with shaking for 30 minutes. The kinase concentration in the eluates was measured by qPCR.

[2] = tested on: IL-6, IL-2, and IFNγ signaling; assay: Cellular assays of Assays 3 to 6 (summary statement); format: cell-based; conditions: Homo sapiens, cellular assays described in Assays 3 to 6
Experimental: (§1) The potency of the test compound for inhibition of interleukin-2 (IL-2)/anti-CD3 stimulated interferon gamma (IFNγ) was measured in human peripheral blood mononuclear cells (PBMCs) isolated from human whole blood (Stanford Blood Center). Because IL-2 signals through JAK, this assay provides a measure of JAK cellular potency.
as §1, with “STAT5 phosphorylation” for “interferon gamma (IFNγ)”, “measured in CD4-positive (CD4+) T cells” for “measured”, “Center) using flow cytometry.” for “Center).”
The potency of the test compound for inhibition of interleukin-6 (IL-6) stimulated CCL2 (MCP-1) production was measured in human peripheral blood mononuclear cells (PBMCs) isolated from human whole blood (Stanford Blood Center). Because IL-6 signals through JAK, this assay provides a distal measure of JAK cellular potency.
The potency of the test compound for inhibition of interferon gamma (IFNγ) stimulated STAT1 phosphorylation was measured in CD14-positive (CD14+) monocytes derived from human whole blood (Stanford Blood Center) using flow cytometry. Because IFNγ signals through JAK, this assay provides a measure of JAK cellular potency.

JAK1 = biological target: T2, JAK1 (Homo sapiens, UniProt P23458); assay: LanthaScreen JAK biochemical assay, JAK1; conditions: read-out: JAK 1 pKi (converted)
T2 construct: GST; purchased Life Technologies
Experimental: A panel of four LanthaScreen JAK biochemical assays (JAK1, 2, 3 and Tyk2) were carried in a common kinase reaction buffer (50 mM HEPES, pH 7.5, 0.01% Brij-35, 10 mM MgCl2, and 1 mM EGTA). Recombinant GST-tagged JAK enzymes and a GFP-tagged STAT1 peptide substrate were obtained from Life Technologies.
Serially diluted compound was pre-incubated with each of the four JAK enzymes and the substrate in white 384-well microplates (Corning) at ambient temperature for 1 h. ATP was subsequently added to initiate the kinase reactions in 10 μL total volume, with 1% DMSO. […] The plates were allowed to incubate at ambient temperature for 1 h before being read on the EnVision reader (Perkin Elmer). Emission ratio signals (520 nm/495 nm) were recorded and utilized to calculate the percent inhibition values based on DMSO and background controls.
For dose-response analysis, percent inhibition data were plotted vs. compound concentrations, and IC50 values were determined from a 4-parameter robust fit model with the Prism software (GraphPad Software). Results were expressed as pIC50 (negative logarithm of IC50) and subsequently converted to pKi (negative logarithm of dissociation constant, Ki) using the Cheng-Prusoff equation.

T2 sequence (P23458 whole entry): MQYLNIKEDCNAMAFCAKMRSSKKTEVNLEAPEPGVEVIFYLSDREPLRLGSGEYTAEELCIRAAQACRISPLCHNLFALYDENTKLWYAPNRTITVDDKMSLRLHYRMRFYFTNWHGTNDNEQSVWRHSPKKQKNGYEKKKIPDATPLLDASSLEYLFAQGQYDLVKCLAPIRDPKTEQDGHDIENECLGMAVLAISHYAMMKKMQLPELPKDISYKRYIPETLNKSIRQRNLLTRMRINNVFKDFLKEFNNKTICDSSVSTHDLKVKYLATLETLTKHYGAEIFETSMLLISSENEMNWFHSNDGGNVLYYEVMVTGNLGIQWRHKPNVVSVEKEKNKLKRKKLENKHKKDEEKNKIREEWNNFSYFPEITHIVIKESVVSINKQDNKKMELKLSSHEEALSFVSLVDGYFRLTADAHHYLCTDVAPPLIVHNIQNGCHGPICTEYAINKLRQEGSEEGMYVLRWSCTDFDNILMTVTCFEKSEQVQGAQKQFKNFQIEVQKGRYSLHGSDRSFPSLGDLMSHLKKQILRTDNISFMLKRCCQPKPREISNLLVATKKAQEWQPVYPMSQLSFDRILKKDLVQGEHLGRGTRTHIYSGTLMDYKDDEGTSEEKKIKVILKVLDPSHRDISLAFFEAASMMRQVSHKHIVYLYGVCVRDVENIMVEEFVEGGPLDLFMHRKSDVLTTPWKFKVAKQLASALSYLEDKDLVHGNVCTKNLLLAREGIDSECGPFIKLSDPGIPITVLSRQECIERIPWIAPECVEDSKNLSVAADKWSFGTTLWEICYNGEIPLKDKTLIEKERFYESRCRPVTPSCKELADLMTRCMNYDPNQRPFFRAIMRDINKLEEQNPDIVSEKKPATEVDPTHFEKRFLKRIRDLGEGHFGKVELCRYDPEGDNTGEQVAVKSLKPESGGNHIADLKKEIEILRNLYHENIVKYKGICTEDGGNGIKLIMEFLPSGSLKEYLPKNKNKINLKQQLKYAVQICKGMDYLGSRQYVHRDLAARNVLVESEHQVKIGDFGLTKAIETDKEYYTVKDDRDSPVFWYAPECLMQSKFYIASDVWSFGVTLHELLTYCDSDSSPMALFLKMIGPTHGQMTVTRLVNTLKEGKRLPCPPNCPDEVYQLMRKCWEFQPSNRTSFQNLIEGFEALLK
T1 sequence (P10721 26-976): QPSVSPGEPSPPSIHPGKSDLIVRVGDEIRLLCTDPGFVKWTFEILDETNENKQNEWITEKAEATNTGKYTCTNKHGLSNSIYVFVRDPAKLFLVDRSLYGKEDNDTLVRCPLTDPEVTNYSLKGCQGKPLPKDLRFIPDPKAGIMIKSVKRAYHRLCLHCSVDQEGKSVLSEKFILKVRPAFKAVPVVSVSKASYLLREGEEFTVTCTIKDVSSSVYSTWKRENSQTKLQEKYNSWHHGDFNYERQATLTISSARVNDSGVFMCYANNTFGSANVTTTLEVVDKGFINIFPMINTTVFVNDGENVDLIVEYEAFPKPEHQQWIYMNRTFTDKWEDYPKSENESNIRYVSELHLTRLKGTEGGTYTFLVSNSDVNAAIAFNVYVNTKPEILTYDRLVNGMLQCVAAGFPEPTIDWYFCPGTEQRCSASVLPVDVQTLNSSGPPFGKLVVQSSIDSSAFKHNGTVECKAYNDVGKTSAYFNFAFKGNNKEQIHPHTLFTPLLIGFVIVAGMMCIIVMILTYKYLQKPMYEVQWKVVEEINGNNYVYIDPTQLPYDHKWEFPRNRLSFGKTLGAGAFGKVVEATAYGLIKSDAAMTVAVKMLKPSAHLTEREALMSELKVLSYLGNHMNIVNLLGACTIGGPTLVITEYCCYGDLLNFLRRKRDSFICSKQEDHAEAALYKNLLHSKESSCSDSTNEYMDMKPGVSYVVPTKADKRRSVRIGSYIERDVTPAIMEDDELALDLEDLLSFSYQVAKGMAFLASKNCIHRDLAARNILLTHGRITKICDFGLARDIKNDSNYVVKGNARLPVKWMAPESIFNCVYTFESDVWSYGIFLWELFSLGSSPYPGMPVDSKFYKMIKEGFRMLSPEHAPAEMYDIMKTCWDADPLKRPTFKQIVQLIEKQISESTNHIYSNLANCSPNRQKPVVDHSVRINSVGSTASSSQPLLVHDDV

CCc1cc(O)c(F)cc1-c1cc(F)c2c(-c3nc4c([nH]3)CCN(C(=O)CN3CCOCC3)C4)n[nH]c2c1 [Compound 1, 1-(2-(6-(2-ethyl-5-fluoro-4-hydroxyphenyl)-4-fluoro-1H-indazol-3-yl)-1,4,6,7-tetrahydro-5H-imidazo[4,5-c]pyridin-5-yl)-2-morpholinoethan-1-one]
CC15 [1]: 3.16 µM
inhibition at 1 µM (KIT): 87%
IC50 ([2]; read-out: IC50 for inhibition of IL-6, IL-2, and IFNγ signaling): ≤ 400 nM
IC50 ([2]; read-out: pIC50 for inhibition of IL-6, IL-2, and IFNγ signaling (converted)): ≤ 398 nM
Ki (JAK1): 0.1 nM
